According to article PMC6632198, “In planta high levels of hydrolysable tannins inhibit peroxidase mediated anthocyanin degradation and maintain abaxially red leaves of Excoecaria Cochinchinensis” (BMC Plant Biology, 2019):

Biological target: T1, ADE/POD (anthocyanin degradation enzyme/peroxidase), purified Osmanthus POD
T1 construct: major in-gel activity band about 110 kDa on semi-native PAGE
Experiment: guaiacol oxidation, absorbance at […] nm
Assay type: biochemical, Osmanthus fragrans
Conditions: guaiacol and H2O2 as substrates, 50 mM phosphate buffer pH 7.0; partially purified enzyme

O=C(O)c1cc(O)c(O)c(O)c1 [gallic acid]
IC50: 35.55 μM GAE
